The results in this text go back to patent US11691992B2 (Anacor Pharmaceuticals, Inc., priority 2017, dated 2023).

pIC50: −log10 of the molar value.

For one assay, the system named is luciferase-expressing L. major parasites developing intracellularly inside RAW 264.7 macrophages. In words: Leishmania major intracellular amastigote assay in RAW 264.7 macrophages (luciferase). As to conditions: RAW264.7, 96 hours, read-out: IC50: I Org. intracellular amastigote Growth L. major, 4 d. The format is cell-based. From the text:
Example 107. Assay for Leishmania major Intracellular Amastigote Assay in RAW 264.7 Macrophages
The intracellular amastigote assay is a microtiter plate drug sensitivity assay that uses the activity of luciferase as a measure of proliferation of luciferase-expressing L. major parasites developing intracellularly inside RAW 264.7 macrophages in the presence of antileishmanial drugs or experimental compounds. (Buckner, F. S., and A. J. Wilson. Am J Prop Med Hyg, 2005, 72(5): 600-605.) As the activity of luciferase and its associated luminescence after addition of the substrate, luciferin, is relative to parasite growth, a test compound that inhibits the growth of the parasite will result in a lower luminescence. The luciferase-expressing L. major parasite used in this assay is genetically modified by adding the luciferase coding region to the pLEXSY-hyg2 vector (Jena Biosciences). The luciferase expression construct was created by digesting the luciferase coding region (1.66 kbp) of pGL3-Basic (Promega) by using two restriction enzymes, NcoI/EagI, followed by electrophoretic separation of the luciferase coding region on a 1% agarose gel. The luciferase coding region was then ligated into pLEXSY-hyg2 vector (Jena Biosciences) which had previously been digested with NcoI/NotI. The vector was linearized with SwaI and subsequently gel purified prior to transfection into L. major parasites. Transfections were carried out by electroporation at 480V, 13Ω, and 500 μF (0.4 mL of 1×10^8 parasites/mL, and 0.1 mL of 10 μg DNA). Selection for transfectants was then carried out using hygromycin B (100 μg/mL). RAW 264.7 macrophages were cultured in DMEM media (ATCC Cat #30-2002) supplemented with heat-inactivated 10% FBS (Invitrogen Cat #10438-034). To begin the assay, macrophages were harvested from culture by removing all spent media, adding in 10 mL fresh media, scraping cells, and counted using Trypan Blue. The cells were resuspended in DMEM/10% HIFBS media at 2.0×10^5 cells/mL, and then dispensed in a volume of 50 μL to yield a final concentration of 10,000 macrophages/well in 384 well tissue-culture treated sterile white plates (Nunc Cat #12-565-343) using a Tecan EVO Freedom robotics system. The plates were then incubated at 37° C. overnight in 5% CO2 atmosphere for 24 hours. After overnight incubation, the media was removed from each well using the Tecan EVO Freedom robot, and L. major promastigotes were added to each well and allowed to invade the RAW macrophages. Promastigotes were cultured in Schneider's medium (Invitrogen Cat #11720-067) supplemented with 20% heat inactivated FBS. Metacyclic stage promastigotes provide the best invasion for this assay, and cultures should be grown to increase the percentage of metacyclic promastigotes for best results. Promastigotes were harvested from culture, counted, suspended at 2×10^6 promastigotes/mL in DMEM/HIFBS media, and 100,000 promastigotes were dispensed per well in a volume of 50 μL. After overnight incubation, the media was removed from each well using the Tecan Freedom EVO robot, and each well was subsequently washed three times with 40 μF of fresh DMEM/HIFBS medium to remove all extracellular promastigotes. After the third wash, 69.2 μF of DMEM/HIFBS medium was added to each well using the Tecan EVO Freedom robot. Drug plates were prepared with the Tecan EVO Freedom using sterile 96 well plates containing twelve duplicate two-fold serial dilutions of each test compound suspended in DMSO. 7.8 μF of diluted test compound was added to the 69.2 μF of media present in each well providing a 10 fold final dilution of compound. The final concentration range tested was 0.5 to 10,000 ng/ml for all assays. The plates were next incubated at 37° C. and 5% CO2 for 96 hours. After 96 hours of incubation, 7.5 μF of a luciferin solution (Caliper Fife Science) diluted to 150 μg/mF was added to each well, and the plates were incubated for 30 minutes at 37° C., in the dark. […]
Usually pIC50 stands for the negative decadic logarithm of the IC50, by convention in mol/L. For the compound `CCn1nnc(C(=O)Nc2ccc3c(c2)B(O)OC3)c1C(F)(F)F` [Example 28, 1-ethyl-N-(1-hydroxy-1,3-dihydrobenzo[c][1,2]oxaborol-6-yl)-5-(trifluoromethyl)-1H-1,2,3-triazole-4-carboxamide], the pIC50 was ≥ 6.00. Still for that read-out and setting: the figure for `O=C(Nc1ccc2c(c1)B(O)OC2)c1nnn(C2CC2)c1C(F)(F)F` [Example 29, 1-cyclopropyl-N-(1-hydroxy-1,3-dihydrobenzo[c][1,2]oxaborol-6-yl)-5-(trifluoromethyl)-1H-1,2,3-triazole-4-carboxamide] is ≥ 6.00; for `O=C(Nc1ccc2c(c1)B(O)OC2)c1nnn(C2CCCC2)c1C(F)(F)F` [Example 30, 1-cyclopentyl-N-(1-hydroxy-1,3-dihydrobenzo[c][1,2]oxaborol-6-yl)-5-(trifluoromethyl)-1H-1,2,3-triazole-4-carboxamide] it is ≥ 6.00.

Take `CCCn1nnc(C(=O)Nc2ccc3c(c2)B(O)OC3)c1C(F)(F)F` [Example 31, N-(1-hydroxy-1,3-dihydrobenzo[c][1,2]oxaborol-6-yl)-1-propyl-5-(trifluoromethyl)-1H-1,2,3-triazole-4-carboxamide]: the pIC50 is ≥ 6.00.

As for `CC(C)n1nnc(C(=O)Nc2ccc3c(c2)B(O)OC3)c1C(F)(F)F` [Example 32, N-(1-hydroxy-1,3-dihydrobenzo[c][1,2]oxaborol-6-yl)-1-isopropyl-5-(trifluoromethyl)-1H-1,2,3-triazole-4-carboxamide], the negative logarithm of the IC50 (pIC50) was ≥ 6.00.

With `COCCn1nnc(C(=O)Nc2ccc3c(c2)B(O)OC3)c1C(F)(F)F` [Example 33, N-(1-hydroxy-1,3-dihydrobenzo[c][1,2]oxaborol-6-yl)-1-(2-methoxyethyl)-5-(trifluoromethyl)-1H-1,2,3-triazole-4-carboxamide], the pIC50 was ≥ 6.00.

In the case of `O=C(Nc1ccc2c(c1)B(O)OC2)c1nnn(CC2CC2)c1C(F)(F)F` [Example 34, 1-(cyclopropylmethyl)-N-(1-hydroxy-1,3-dihydrobenzo[c][1,2]oxaborol-6-yl)-5-(trifluoromethyl)-1H-1,2,3-triazole-4-carboxamide], the negative-log IC50 (pIC50) was ≥ 6.00. In the case of `O=C(Nc1ccc2c(c1)B(O)OC2)c1nnn(CC2CCCC2)c1C(F)(F)F` [Example 35, 1-(cyclopentylmethyl)-N-(1-hydroxy-1,3-dihydrobenzo[c][1,2]oxaborol-6-yl)-5-(trifluoromethyl)-1H-1,2,3-triazole-4-carboxamide], the negative logarithm of the IC50 (pIC50) is ≥ 6.00. The same measure, in the same setting: the result for `CCCn1nnc(C(=O)Nc2ccc3c(c2)B(O)OC3)c1C` [Example 36, N-(1-hydroxy-1,3-dihydrobenzo[c][1,2]oxaborol-6-yl)-5-methyl-1-propyl-1H-1,2,3-triazole-4-carboxamide] reads ≥ 6.00; that for `Cc1c(C(=O)Nc2ccc3c(c2)B(O)OC3)nnn1C(C)C` [Example 37, N-(1-hydroxy-1,3-dihydrobenzo[c][1,2]oxaborol-6-yl)-1-isopropyl-5-methyl-1H-1,2,3-triazole-4-carboxamide], ≥ 6.00. On the same count and under the same terms, the result for `Cc1c(C(=O)Nc2ccc3c(c2)B(O)OC3)nnn1C1CC1` [Example 38, 1-cyclopropyl-N-(1-hydroxy-1,3-dihydrobenzo[c][1,2]oxaborol-6-yl)-5-methyl-1H-1,2,3-triazole-4-carboxamide] reads ≥ 6.00; that for `Cc1c(C(=O)Nc2ccc3c(c2)B(O)OC3)nnn1CC(F)(F)F` [Example 39, N-(1-hydroxy-1,3-dihydrobenzo[c][1,2]oxaborol-6-yl)-5-methyl-1-(2,2,2-trifluoroethyl)-1H-1,2,3-triazole-4-carboxamide], ≥ 6.00. On the same count and under the same terms, the result for `COCCn1nnc(C(=O)Nc2ccc3c(c2)B(O)OC3)c1C` [Example 40, N-(1-hydroxy-1,3-dihydrobenzo[c][1,2]oxaborol-6-yl)-1-(2-methoxyethyl)-5-methyl-1H-1,2,3-triazole-4-carboxamide] reads ≥ 6.00; that for `Cc1c(C(=O)Nc2ccc3c(c2)B(O)OC3)nnn1C1CCCC1` [Example 41, 1-cyclopentyl-N-(1-hydroxy-1,3-dihydrobenzo[c][1,2]oxaborol-6-yl)-5-methyl-1H-1,2,3-triazole-4-carboxamide], ≥ 6.00; that for `Cc1c(C(=O)Nc2ccc3c(c2)B(O)OC3)nnn1CC1CC1` [Example 43, 1-(cyclopropylmethyl)-N-(1-hydroxy-1,3-dihydrobenzo[c][1,2]oxaborol-6-yl)-5-methyl-1H-1,2,3-triazole-4-carboxamide], 4.30 to 5.00.

Take `Cc1c(C(=O)Nc2ccc3c(c2)B(O)OC3)nnn1CC1CCCC1` [Example 44, 1-(cyclopentylmethyl)-N-(1-hydroxy-1,3-dihydrobenzo[c][1,2]oxaborol-6-yl)-5-methyl-1H-1,2,3-triazole-4-carboxamide]: the pIC50 is 4.30 to 5.00.

Regarding `O=C(Nc1ccc2c(c1)B(O)OC2)c1nnn(C2CCC2)c1C(F)(F)F` [Example 45, 1-cyclobutyl-N-(1-hydroxy-1,3-dihydrobenzo[c][1,2]oxaborol-6-yl)-5-(trifluoromethyl)-1H-1,2,3-triazole-4-carboxamide], the pIC50 was 4.30 to 5.00.

The next assay concerns IL3000 T. congolense (drug sensitive) strain. Put plainly: In vitro Alamar Blue 72 h drug sensitivity assay for T. congolense. Format: cell-based. The conditions noted are these: Trypanosoma congolense; bloodstream form, 69 h + 3 h resazurin, 34° C.; classes A-C; read-out: IC50: I Org. Growth T. congolense IL-3000, 3 d. How it is done: Example 106. In Vitro Alamar Blue 72 h Drug Sensitivity Assay for T. congolense
Compounds were tested in vitro for chemotherapeutic potency against the IL3000 T. congolense (drug sensitive) strain, using the Alamar Blue assay with several modifications. Test compounds were prepared as 10 mg/mL DMSO stocks for each assay run. Compounds were assayed in at least three separate, independent test runs and an 11-point dilution curve was used to determine the IC50 values. Bloodstream form trypanosomes were supported in HMI media containing 20% bovine serum and were incubated with test compounds for 69 h at 34° C. in a humidified atmosphere containing 5% CO2. Thereafter, 10 μL of Resazurin dye (12.5 mg in 100 mL of phosphate buffered saline, Sigma-Aldrich, Buchs, Switzerland) were added for an additional 3 h. Plates were then read using a fluorescent plate reader (Spectramax, Gemini XS, Bucher Biotec, Basel, Switzerland) using an excitation wavelength of 536 nm and an emission wavelength of 588 nm. Data points were averaged to generate sigmoidal dose-response curves and IC50 values were determined using Softmax Pro 5.2 software.
Background: The colour change of resazurin is a common sign of viable cells or microbes.
As for `CCc1c(C(=O)Nc2ccc3c(c2)B(O)OC3)nnn1-c1ccccn1` [Example 49, 5-ethyl-N-(1-hydroxy-1,3-dihydrobenzo[c][1,2]oxaborol-6-yl)-1-(pyridin-2-yl)-1H-1,2,3-triazole-4-carboxamide], the pIC50 was > 7.00.

Another assay concerns TdTomato-modified T. cruzi (CL strain) in Vero cells. Put plainly: In vitro IC50 measurement of T. cruzi amastigote killing using TdTomato-modified T. cruzi (CL strain). As to conditions: Trypanosoma cruzi, 72 h, fluorescence, read-out: IC50: I Org. amastigote Growth T. cruzi CL TdTomato, 3 d. Format: cell-based. On the procedure:
Example 112. In Vitro IC50 Measurement of T. cruzi Amastigote Killing Using TdTomato-Modified T. cruzi (CL Strain)
The T. cruzi parasites used in this assay were genetically modified to express Td Tomato fluorescent protein. Vero cells (African green monkey kidney epithelial cells) were harvested from continuous cultures using trypsin and added to the inner 60 wells of 96-well Greiner Bio One plates (plate catalog #655090) at 200 ul/well of […]. Cells were allowed to adhere for 1 h before infection with T. cruzi. T. cruzi for infection were harvested from previously-infected Vero cells, washed, pelleted and resuspended at 5×10^6/mL. 50 uL of parasites were added to each well containing Vero cells. Compounds were prepared from 5 mM stock concentrations in DMSO to final concentrations in wells ranging from 5 uM to 5 nM. Wells were provided for negative controls, lacking compounds. Plates were placed into a 37° C. incubator for 20 min, then a “Day 0” reading was taken on a Synergy H4 plate reader to record initial fluorescence levels, at 544 (excitation) and 612 nm (emission). 96-well plates were placed in Tupperware containers with wet paper towels and incubated at 37° C. incubator for 72 h. After 72 h plates were reread (Day 3 reading) and data analyzed using Excel and/or Graphpad software. Day 0 fluorescence was subtracted from Day 3 to remove input parasite fluorescence. Growth curves are generated and 50% and 90% inhibitory concentrations are determined by nonlinear regression analysis.
As to `CCc1c(C(=O)Nc2ccc3c(c2)B(O)OC3)nnn1-c1ccccn1` [Example 49, 5-ethyl-N-(1-hydroxy-1,3-dihydrobenzo[c][1,2]oxaborol-6-yl)-1-(pyridin-2-yl)-1H-1,2,3-triazole-4-carboxamide], the pIC50 is > 6.22.
